Measurements from publication PMC11436758, “Computer-aided drug design to generate a unique antibiotic family” (Nature Communications, 2024).
Where “and” joins values, the source holds several entries; their conditions need not be identical. Equal entries are not always repeated.

Assays:
[1] = molecular target: T1, wild-type AcpS (Escherichia coli, UniProt P24224); experiment: Inhibition of purified wild-type AcpS by DNM0547; assay type: biochemical, E. coli; conditions: for AcpS rate nM/min, Mean / AcpS rate: Suppl Fig 3, [AcpS_WT] 5 nM; for AcpS rate: replicates
T1 construct: 6x-His (C); made in house
T1 sequence (P24224 whole entry): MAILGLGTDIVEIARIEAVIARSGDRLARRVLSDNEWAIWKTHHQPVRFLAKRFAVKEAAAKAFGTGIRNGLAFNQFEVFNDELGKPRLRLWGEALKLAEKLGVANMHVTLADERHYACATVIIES

[2] = molecular target: AcpS^F50/50A (Escherichia coli, UniProt P24224, F49A); experiment: Inhibition of purified AcpS site-directed mutant by DNM0547; assay type: biochemical, E. coli
Sequence of AcpS^F50/50A (P24224 2-126 F49A): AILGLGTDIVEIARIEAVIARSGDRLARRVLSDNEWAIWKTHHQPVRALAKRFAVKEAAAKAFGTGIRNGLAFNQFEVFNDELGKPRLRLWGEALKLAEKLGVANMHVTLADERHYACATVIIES
Protocol: Using purified E. coli AcpS proteins, we determined the enzyme activity of wild-type and numerous AcpS mutants. Those analyzed by scanning alanine mutagenesis included (S. aureus amino acid residue followed by the corresponding E. coli residue) R46/48, F50/50, R54/53, K63/62, N82/81, and H-/108.
Recombinant His-Tagged AcpS expression was induced by IPTG addition and overnight culture. Cell lysate was obtained by sequential aspiration through 16, 18 and 21 G needles in a buffer of 50 mM Tris-HCl (pH 8.5), 10 mM MgCl2, 2 mM DTT, 5% glycerol, and further adjusted to pH 8.1 with MES. […] In a typical AcpS enzyme activity assay, 57 µM [^3H]acetyl-CoA, 2 µg apo-ACP, 10 mM MgCl2, 5 mM DTT, 50 mM Na phosphate (pH 7.0), and AcpS in a final volume of 10 µL were incubated at room temperature in a 1.5 mL microcentrifuge tube. At 5, 10, 15, and 20 min 2 µL of reaction were added to 750 µl 10% TCA on ice. […] 2 mL of scintillation fluid was added, and the amount of [^3H]-labeled holo-ACP formed was quantified by liquid scintillation counting. […] Routinely, each data point was determined at least by triplicate. […]
coli wild type and AcpS mutants determined using purified proteins. b, AcpS enzyme activity for each AcpS mutant was assayed at increasing concentration of DNM0547 (0-128 µM). IC50 was determined using GraphPad Prism. […]

[3] = molecular target: T2, AcpS^H-/108A (Escherichia coli, UniProt P24224, H108A); experiment: as above; assay type: biochemical, E. coli; conditions: for AcpS rate nM/min, Mean / AcpS rate: Suppl Fig 3, [AcpS_H108A] 5nM; for AcpS rate: replicates
T2 construct: 6x-His (C); made in house
T2 sequence (P24224 whole entry H108A): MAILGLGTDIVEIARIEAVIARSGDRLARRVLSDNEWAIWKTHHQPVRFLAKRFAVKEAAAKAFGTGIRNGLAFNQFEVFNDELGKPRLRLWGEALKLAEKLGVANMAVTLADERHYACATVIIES

[4] = system: MRSA (ATCC 33591); experiment: Mouse cellulitis model of infection, topical treatment; assay type: in vivo, SKH1 mice; conditions: for Wound size (mm2), Mean / Wound size (mm2): Fig 2d
Protocol: SKH1 mice from Charles River were used and male and female mice were utilized, sample size prevented disaggregation of data by sex. Mice were housed with a 12 h light and dark cycle at 21 °C in relative humidity of 40–50%. Investigators were blinded to group allocation, data collection, and data analysis. The formulation for delivery of DNM0547 was Glaxal base (WellSpring Pharmaceutical Canada Corp., Oakville, Canada). Formulation was performed by dissolving compound in Glaxal base to give final concentrations of 2% DNM0547 compound (w/v). MRSA (ATCC #33591) were grown to mid-log phase, concentrated by centrifugation and suspended in sterile PBS at a stock concentration of 2 × 10^11 CFU/mL.
Four week old mice were anesthetized and injected intradermally with 1 × 10^8 CFU/mouse. 4 h after injection, mice were treated with 50 μl 2% DNM0547 cream, or excipient alone. Lesion dimensions were recorded daily for seven days. Food and water were given ad libidum. On day seven, mice were euthanized and the lesion area aseptically removed to 3 mL sterile PBS. The samples were homogenized and serial dilutions were plated on blood agar and incubated at 37 °C to determine CFU. The mouse model of skin infection was performed and evaluated with Washington Biotechnology Inc (Baltimore, MD, USA).

[5] = 2% cream for 7 days, versus vehicle control

CC(C)c1cc(Cl)ccc1-c1cc(-c2nnn[nH]2)c(-c2ccc(Cl)cc2C(C)C)s1 [DNM0547]
IC50 [1]: 5.1 µM | AcpS rate nM/min, Mean ([1]; Drug Conc 1 uM): 40.51 nM/min | AcpS rate ([1]; Drug Conc 1 uM): 41.16 nM/min and 37.27 nM/min and 43.10 nM/min | AcpS rate nM/min, Mean ([1]; Drug Conc 2 uM): 36.72 nM/min | AcpS rate ([1]; Drug Conc 2 uM): 35.90 nM/min and 37.65 nM/min and 36.61 nM/min | AcpS rate nM/min, Mean ([1]; Drug Conc 4 uM): 24.24 nM/min | AcpS rate ([1]; Drug Conc 4 uM): 27.20 nM/min and 22.45 nM/min and 23.08 nM/min | AcpS rate nM/min, Mean ([1]; Drug Conc 8 uM): 14.81 nM/min | AcpS rate ([1]; Drug Conc 8 uM): 14.57 nM/min and 15.17 nM/min and 14.69 nM/min | AcpS rate nM/min, Mean ([1]; Drug Conc 16 uM): 6.58 nM/min | AcpS rate ([1]; Drug Conc 16 uM): 5.73 nM/min and 8.26 nM/min and 5.76 nM/min | AcpS rate nM/min, Mean ([1]; Drug Conc 32 uM): 2.47 nM/min | AcpS rate ([1]; Drug Conc 32 uM): 2.50 nM/min and 2.59 nM/min and 2.33 nM/min | AcpS rate nM/min, Mean ([1]; Drug Conc 64 uM): 1.94 nM/min | AcpS rate ([1]; Drug Conc 64 uM): 1.85 nM/min and 1.95 nM/min and 2.00 nM/min | AcpS rate nM/min, Mean ([1]; Drug Conc 128 uM): 1.59 nM/min | AcpS rate ([1]; Drug Conc 128 uM): 1.43 nM/min and 1.51 nM/min and 1.82 nM/min | remaining activity at 1 µM ([1]; read-out: % of untreated, Suppl Fig 3, [AcpS_WT] 5 nM, Drug Conc 1 uM, replicates): 99.1% | remaining activity at 2 µM ([1]; read-out: % of untreated, Suppl Fig 3, [AcpS_WT] 5 nM, Drug Conc 2 uM, replicates): 86.4% | remaining activity at 4 µM ([1]; read-out: % of untreated, Suppl Fig 3, [AcpS_WT] 5 nM, Drug Conc 4 uM, replicates): 65.5% | remaining activity at 8 µM ([1]; read-out: % of untreated, Suppl Fig 3, [AcpS_WT] 5 nM, Drug Conc 8 uM, replicates): 35.1% | remaining activity at 16 µM ([1]; read-out: % of untreated, Suppl Fig 3, [AcpS_WT] 5 nM, Drug Conc 16 uM, replicates): 13.8% | remaining activity at 32 µM ([1]; read-out: % of untreated, Suppl Fig 3, [AcpS_WT] 5 nM, Drug Conc 32 uM, replicates): 6.02% | remaining activity at 64 µM ([1]; read-out: % of untreated, Suppl Fig 3, [AcpS_WT] 5 nM, Drug Conc 64 uM, replicates): 4.46% | remaining activity at 128 µM ([1]; read-out: % of untreated, Suppl Fig 3, [AcpS_WT] 5 nM, Drug Conc 128 uM, replicates): 3.45% | IC50 [2]: 16.2 µM | IC50 [3]: 5.6 µM | AcpS rate nM/min, Mean ([3]; Drug Conc 1 uM): 7.81 nM/min | AcpS rate ([3]; Drug Conc 1 uM): 7.96 nM/min and 7.81 nM/min and 7.64 nM/min | AcpS rate nM/min, Mean ([3]; Drug Conc 2 uM): 6.86 nM/min | AcpS rate ([3]; Drug Conc 2 uM): 6.91 nM/min and 7.01 nM/min and 6.66 nM/min | AcpS rate nM/min, Mean ([3]; Drug Conc 4 uM): 4.72 nM/min | AcpS rate ([3]; Drug Conc 4 uM): 4.74 nM/min and 4.76 nM/min and 4.66 nM/min | AcpS rate nM/min, Mean ([3]; Drug Conc 8 uM): 3.23 nM/min | AcpS rate ([3]; Drug Conc 8 uM): 2.93 nM/min and 3.30 nM/min and 3.44 nM/min | AcpS rate nM/min, Mean ([3]; Drug Conc 16 uM): 2.83 nM/min | AcpS rate ([3]; Drug Conc 16 uM): 3.20 nM/min and 2.39 nM/min and 2.90 nM/min | AcpS rate nM/min, Mean ([3]; Drug Conc 32 uM): 1.69 nM/min | AcpS rate ([3]; Drug Conc 32 uM): 1.65 nM/min and 1.74 nM/min and 1.68 nM/min | AcpS rate nM/min, Mean ([3]; Drug Conc 64 uM): 1.60 nM/min | AcpS rate ([3]; Drug Conc 64 uM): 1.52 nM/min and 1.63 nM/min and 1.65 nM/min | AcpS rate nM/min, Mean ([3]; Drug Conc 128 uM): 1.34 nM/min | AcpS rate ([3]; Drug Conc 128 uM): 1.38 nM/min and 1.44 nM/min and 1.20 nM/min | remaining activity at 1 µM ([3]; read-out: % of untreated, Suppl Fig 3, [AcpS_H108A] 5nM, Drug Conc 1 uM, replicates): 105% | remaining activity at 2 µM ([3]; read-out: % of untreated, Suppl Fig 3, [AcpS_H108A] 5nM, Drug Conc 2 uM, replicates): 90.9% | remaining activity at 4 µM ([3]; read-out: % of untreated, Suppl Fig 3, [AcpS_H108A] 5nM, Drug Conc 4 uM, replicates): 62.4% | remaining activity at 8 µM ([3]; read-out: % of untreated, Suppl Fig 3, [AcpS_H108A] 5nM, Drug Conc 8 uM, replicates): 38.5% | remaining activity at 16 µM ([3]; read-out: % of untreated, Suppl Fig 3, [AcpS_H108A] 5nM, Drug Conc 16 uM, replicates): 42.1% | remaining activity at 32 µM ([3]; read-out: % of untreated, Suppl Fig 3, [AcpS_H108A] 5nM, Drug Conc 32 uM, replicates): 21.7% | remaining activity at 64 µM ([3]; read-out: % of untreated, Suppl Fig 3, [AcpS_H108A] 5nM, Drug Conc 64 uM, replicates): 20% | remaining activity at 128 µM ([3]; read-out: % of untreated, Suppl Fig 3, [AcpS_H108A] 5nM, Drug Conc 128 uM, replicates): 18.1% | reduction in wound size [4, 5]: 4 fold | reduction of bacterial load [4, 5]: > 98% | CFUs ([4]; Fig 2e, individual animals): 66 CFUs and 3900 CFUs and 0 CFUs (2×) and 57 CFUs | Wound size (mm2), Mean ([4]; Day 1): 14.643 mm2 | Wound size (mm2), Mean ([4]; Day 2): 24.6313 mm2 | Wound size (mm2), Mean ([4]; Day 3): 14.2828 mm2 | Wound size (mm2), Mean ([4]; Day 4): 14.2975 mm2 | Wound size (mm2), Mean ([4]; Day 5): 12.6205 mm2 | Wound size (mm2), Mean ([4]; Day 6): 11.8387 mm2 | Wound size (mm2), Mean ([4]; Day 7): 14.2246 mm2 | Wound size (mm2) ([4]; individual animals, Day 1): 12.5374 mm2 and 14.3799 mm2 and 14.54 mm2 and 15.8884 mm2 and 15.87 mm2 | Wound size (mm2) ([4]; individual animals, Day 2): 25.0932 mm2 and 30.8908 mm2 and 21.02 mm2 and 14.3128 mm2 and 31.84 mm2 | Wound size (mm2) ([4]; individual animals, Day 3): 14.5538 mm2 and 21.2799 mm2 and 9.59 mm2 and 10.8726 mm2 and 15.12 mm2 | Wound size (mm2) ([4]; individual animals, Day 4): 15.4052 mm2 and 19.652 mm2 and 13.70 mm2 and 11.5756 mm2 and 11.16 mm2 | Wound size (mm2) ([4]; individual animals, Day 5): 9.8797 mm2 and 13.6551 mm2 and 8.00 mm2 and 10.1736 mm2 and 21.40 mm2 | Wound size (mm2) ([4]; individual animals, Day 6): 12.7154 mm2 and 14.2046 mm2 and 11.72 mm2 and 7.547 mm2 and 13.01 mm2 | Wound size (mm2) ([4]; individual animals, Day 7): 15.755 mm2 and 18.619 mm2 and 16.44 mm2 and 5.851 mm2 and 14.46 mm2
